Data published in ChEMBL document CHEMBL1201862, “PubChem BioAssay data set” (2004).
Calls of active or inactive are those of the source.

Legend:
[1] = cytotoxicity in HMLE control line with eGFP shRNA, dose response, counter-screen for HMLE_sh_ECad selective toxicity project, cell-based, HMLE_sh_eGFP, luminescence (AID 463074); format: functional, Homo sapiens;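 also: HMLE human mammary epithelial cells expressing control shRNA against eGFP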
[2] = Luminescence Cell-Based Dose Retest to Confirm Inhibitors of Cancer Stem Cells. [Related pubchem assays (depositor defined):AID2717, AID2721]; format: functional; settings: Homo sapiens
[3] = target: T1, Beta-2 adrenergic receptor (Homo sapiens, UniProt P07550); experiment: beta2AR agonists driving receptor internalization, dose response, cell-based, FAP fluorogen, flow cytometry, cherry pick 1 (AID 588763); format: functional
[4] = target: T1, Beta-2 adrenergic receptor; experiment: Dose response for HTS for Beta-2AR agonists via FAP method from Powderset3.; format: functional
Hexokinase HKDC1 = target: T2, Hexokinase HKDC1 (Homo sapiens, UniProt Q2TB90); experiment: SAR analysis of small molecule inhibitors of hexokinase domain containing I (HKDC1). [Related pubchem assays (depositor defined):AID493160, AID493190]; format: functional
T2 sequence (Q2TB90 whole entry): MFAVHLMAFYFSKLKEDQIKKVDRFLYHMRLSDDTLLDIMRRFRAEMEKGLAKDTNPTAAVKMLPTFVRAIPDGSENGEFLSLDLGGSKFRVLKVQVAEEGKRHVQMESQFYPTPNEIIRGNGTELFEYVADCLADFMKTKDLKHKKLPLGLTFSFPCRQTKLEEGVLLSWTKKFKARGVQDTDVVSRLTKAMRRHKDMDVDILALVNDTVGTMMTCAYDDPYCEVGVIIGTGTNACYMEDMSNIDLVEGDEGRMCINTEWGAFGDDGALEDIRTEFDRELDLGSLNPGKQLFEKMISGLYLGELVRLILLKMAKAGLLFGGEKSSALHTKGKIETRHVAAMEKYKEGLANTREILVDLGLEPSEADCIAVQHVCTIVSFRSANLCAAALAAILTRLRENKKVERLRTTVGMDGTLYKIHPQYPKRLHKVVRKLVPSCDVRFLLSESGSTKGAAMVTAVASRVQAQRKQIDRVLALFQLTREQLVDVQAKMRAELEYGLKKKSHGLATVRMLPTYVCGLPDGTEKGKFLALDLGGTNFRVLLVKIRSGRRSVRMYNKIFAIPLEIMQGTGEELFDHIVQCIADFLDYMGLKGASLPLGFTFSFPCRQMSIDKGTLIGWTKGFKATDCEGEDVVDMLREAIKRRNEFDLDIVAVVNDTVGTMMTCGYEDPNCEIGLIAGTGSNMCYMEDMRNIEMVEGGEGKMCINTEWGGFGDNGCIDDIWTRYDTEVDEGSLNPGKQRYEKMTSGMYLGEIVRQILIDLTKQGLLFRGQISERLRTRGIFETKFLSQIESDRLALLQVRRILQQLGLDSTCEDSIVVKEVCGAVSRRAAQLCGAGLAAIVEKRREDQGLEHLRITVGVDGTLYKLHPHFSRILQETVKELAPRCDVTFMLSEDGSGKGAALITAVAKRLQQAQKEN

Hexokinase-1 = Hexokinase-1 (Homo sapiens, UniProt P19367); experiment: SAR analysis of small molecule inhibitors of hexokinase domain containing I (HKDC1) in the hexokinase 1 selectivity assay. [Related pubchem assays (depositor defined):AID493160, AID493190]; format: functional
[5] = target: T3, Short transient receptor potential channel 4 (Mus musculus, UniProt Q9QUQ5); experiment: SAR Analysis for the identification of selective inhibits of the transient receptor potential cation channel C4 (TRPC4): Automated Electrophysiology_2. [Related pubchem assays (depositor defined):AID2256]; format: functional
T3 sequence (Q9QUQ5 whole entry): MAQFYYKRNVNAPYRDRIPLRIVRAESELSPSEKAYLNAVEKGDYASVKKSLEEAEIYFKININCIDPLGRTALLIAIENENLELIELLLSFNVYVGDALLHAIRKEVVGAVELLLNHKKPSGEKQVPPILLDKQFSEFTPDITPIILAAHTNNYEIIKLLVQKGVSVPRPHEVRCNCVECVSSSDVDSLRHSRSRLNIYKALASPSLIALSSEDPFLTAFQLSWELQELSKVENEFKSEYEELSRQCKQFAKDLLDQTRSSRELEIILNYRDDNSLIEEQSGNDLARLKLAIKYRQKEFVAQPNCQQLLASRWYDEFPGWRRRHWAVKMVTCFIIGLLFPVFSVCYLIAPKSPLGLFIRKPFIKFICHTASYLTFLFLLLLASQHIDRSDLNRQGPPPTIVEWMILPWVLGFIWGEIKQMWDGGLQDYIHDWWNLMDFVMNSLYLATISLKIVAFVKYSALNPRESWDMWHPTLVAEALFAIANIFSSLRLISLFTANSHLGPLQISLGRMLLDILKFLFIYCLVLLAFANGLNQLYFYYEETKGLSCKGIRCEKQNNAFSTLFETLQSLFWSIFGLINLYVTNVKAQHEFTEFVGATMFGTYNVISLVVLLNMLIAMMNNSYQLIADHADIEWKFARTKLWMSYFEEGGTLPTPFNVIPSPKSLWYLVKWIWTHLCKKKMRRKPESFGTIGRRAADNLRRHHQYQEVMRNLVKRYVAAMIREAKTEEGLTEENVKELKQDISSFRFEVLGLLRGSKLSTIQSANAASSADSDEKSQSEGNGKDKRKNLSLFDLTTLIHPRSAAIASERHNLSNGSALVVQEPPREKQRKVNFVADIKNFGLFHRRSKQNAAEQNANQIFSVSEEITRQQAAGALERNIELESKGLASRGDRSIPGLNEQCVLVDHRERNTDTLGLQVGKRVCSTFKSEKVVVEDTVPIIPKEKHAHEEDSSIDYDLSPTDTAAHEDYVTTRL

[6] = target: T3, Short transient receptor potential channel 4; experiment: TRPC4 inhibitor concentration-response, dose response, cell-based, HEK293 TRPC4/mu-opioid, DAMGO stimulus, Fluo-4 (AID 492994); format: functional
[7] = target: Short transient receptor potential channel 6 (Mus musculus, UniProt Q61143); experiment: TRPC6 inhibition potency of TRPC4 inhibitor analogs, dose response, selectivity assay for selective TRPC4 inhibitor project, HEK293 cells, membrane potential dye, IC50 (AID 492987); format: functional, cell-based
[8] = HepG2 cell cytotoxicity, dose response, cytotoxicity control for Shn3 inhibitor project, CellTiter-Glo, cherry-picked (AID 624134); format: functional, cell-based
[9] = cytotoxicity in HEK-293T NF-kB-Luc cells, dose response, cytotoxicity control for B/T-cell NF-kB inhibitor project, cell-based, uHTS hits (AID 489019); format: functional;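 also: IC50 reflects cytotoxicity as loss of cell viability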
[10] = control 3'UTR Renilla luciferase suppression, dose response, counter-screen for Shn3 inhibitor project, cell-based, Clone20-Shn3RL, cherry-picked (AID 624133); format: functional
Jurkat = experiment: antigen receptor-induced NF-kB inhibitors, dose response, Jurkat, luciferase reporter, luminescence, B- and T-cell (AID 489004); format: functional, cell-based; settings: Homo sapiens;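 also: NF-kB luciferase reporter Jurkat cells stimulated with PMA plus ionomycin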
[11] = target: T4, Type-1 angiotensin II receptor (Homo sapiens, UniProt P30556); experiment: AT1 receptor antagonists, dose response, selectivity assay for APJ receptor antagonist project, cell-based, uHTS hits (AID 463214); format: functional;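 also: antagonist potency against angiotensin II stimulated AT1 response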
T4 sequence (P30556 whole entry): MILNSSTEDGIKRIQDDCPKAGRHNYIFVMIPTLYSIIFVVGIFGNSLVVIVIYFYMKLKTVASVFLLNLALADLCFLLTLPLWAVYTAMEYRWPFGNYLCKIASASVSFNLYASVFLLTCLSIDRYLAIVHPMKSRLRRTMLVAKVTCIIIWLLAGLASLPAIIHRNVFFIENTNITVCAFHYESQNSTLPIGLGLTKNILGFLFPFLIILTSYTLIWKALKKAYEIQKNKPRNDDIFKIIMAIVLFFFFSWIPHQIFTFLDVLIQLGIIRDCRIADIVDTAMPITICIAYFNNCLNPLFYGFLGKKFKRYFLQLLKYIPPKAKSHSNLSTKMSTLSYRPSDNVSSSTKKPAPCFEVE

Beta-galactosidase = Beta-galactosidase (Escherichia coli, UniProt Q8VNN2); experiment: PubChem AID 485352; format: functional
[12] = Shn3 3'UTR reporter inhibitors, dose response, cell-based, Clone20 osteoblasts, firefly luciferase, cherry-picked (AID 624132); format: functional;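 also: firefly luciferase luminescence from reporter carrying the Shn3 3'UTR in osteoblasts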
[13] = target: Voltage-gated inwardly rectifying potassium channel KCNH2 (Homo sapiens, UniProt Q12809); settings: Potency;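 also: confirmatory quantitative high-throughput screen measuring inhibition of hERG channel activity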
[14] = target: Dual specificity protein phosphatase 6 (Rattus norvegicus, UniProt Q64346); format: functional;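 also: confirmatory in vitro dose-response testing of MKP-3 inhibition; recombinant His-tagged MKP-3 made in E. coli BL21 with OMFP substrate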
[15] = target: Tyrosine-protein phosphatase non-receptor type 12 (Homo sapiens, UniProt Q05209); experiment: SAR Selectivity Analysis of small molecule inhibitors of PEST using pCAP in a fluorescence assay. [Related pubchem assays (depositor defined):AID1779, AID1784, AID2135]; format: functional
[16] = target: T5, Tyrosine-protein phosphatase non-receptor type 22 (Homo sapiens, UniProt Q9Y2R2); experiment: SAR LYP1 Fluorescent Assay using OMFP substrate for In Vitro dose response studies - Set 3. [Related pubchem assays (depositor defined):AID1779, AID1784, AID2140, AID2686]; format: functional
T5 sequence (Q9Y2R2 whole entry): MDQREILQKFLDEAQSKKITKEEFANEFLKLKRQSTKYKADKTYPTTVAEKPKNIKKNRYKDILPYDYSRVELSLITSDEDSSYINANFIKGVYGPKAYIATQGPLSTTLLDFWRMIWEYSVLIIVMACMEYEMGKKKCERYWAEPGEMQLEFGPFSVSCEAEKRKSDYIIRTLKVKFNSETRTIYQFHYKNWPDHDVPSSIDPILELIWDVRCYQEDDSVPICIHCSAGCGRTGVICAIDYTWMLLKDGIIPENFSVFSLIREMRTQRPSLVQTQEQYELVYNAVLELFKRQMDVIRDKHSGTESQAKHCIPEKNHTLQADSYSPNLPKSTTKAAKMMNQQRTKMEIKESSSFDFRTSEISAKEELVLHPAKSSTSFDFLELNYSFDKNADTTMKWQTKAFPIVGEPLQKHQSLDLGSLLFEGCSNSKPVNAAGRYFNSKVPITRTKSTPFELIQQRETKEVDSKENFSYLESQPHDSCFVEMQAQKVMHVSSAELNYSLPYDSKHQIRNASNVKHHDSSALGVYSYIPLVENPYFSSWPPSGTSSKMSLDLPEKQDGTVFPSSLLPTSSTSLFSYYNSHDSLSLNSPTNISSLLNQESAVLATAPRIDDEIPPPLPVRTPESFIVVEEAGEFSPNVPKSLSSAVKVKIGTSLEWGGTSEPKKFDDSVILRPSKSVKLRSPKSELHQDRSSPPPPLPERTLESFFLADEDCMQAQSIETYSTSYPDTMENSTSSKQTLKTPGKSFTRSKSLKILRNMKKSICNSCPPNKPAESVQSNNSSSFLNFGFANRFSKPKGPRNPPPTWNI

[17] = target: T6, Tyrosine-protein phosphatase non-receptor type 7 (Homo sapiens, UniProt P35236); experiment: redox-dependent HePTP inhibition, mechanism study, biochemical, fluorescence (AID 2068); format: functional
T6 sequence (P35236 whole entry): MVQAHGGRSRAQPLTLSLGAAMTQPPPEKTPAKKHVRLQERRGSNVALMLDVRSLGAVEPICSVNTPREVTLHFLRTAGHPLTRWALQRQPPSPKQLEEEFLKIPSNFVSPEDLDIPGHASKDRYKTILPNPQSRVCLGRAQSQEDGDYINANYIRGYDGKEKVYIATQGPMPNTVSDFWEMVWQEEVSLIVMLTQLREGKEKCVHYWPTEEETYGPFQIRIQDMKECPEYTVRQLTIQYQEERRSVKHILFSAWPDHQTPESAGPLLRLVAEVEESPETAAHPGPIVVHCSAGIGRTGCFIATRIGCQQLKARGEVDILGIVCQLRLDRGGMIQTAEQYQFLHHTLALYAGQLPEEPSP

[18] = target: T6, Tyrosine-protein phosphatase non-receptor type 7; experiment: HePTP (PTPN7) phosphatase inhibitor potency, SAR follow-up, biochemical, set 2 (AID 449736); format: functional
[19] = target: T5, Tyrosine-protein phosphatase non-receptor type 22; experiment: LYP (PTPN22) phosphatase inhibitor potency, SAR follow-up, biochemical, pCAP fluorogenic substrate, fluorescence, set 3 (AID 449727); format: functional
[20] = target: T7, Dual specificity protein phosphatase 3 (Homo sapiens, UniProt P51452); experiment: SAR VHR1 Fluorescent Assay for In Vitro dose response studies. [Related pubchem assays (depositor defined):AID1654, AID1661, AID1878, AID1992, AID2004, AID2070, AID2085]; format: functional
[21] = target: T7, Dual specificity protein phosphatase 3; experiment: SAR VHR1 Fluorescent Assay for In Vitro dose response studies Set 2. [Related pubchem assays (depositor defined):AID1654, AID1661, AID1878]; format: functional
[22] = target: T7, Dual specificity protein phosphatase 3; experiment: MOA VHR1 Fluorescent secondary assay for identification of redox-state modulating compounds. [Related pubchem assays (depositor defined):AID1654, AID1661, AID1878, AID1957]

T7 sequence (P51452 whole entry): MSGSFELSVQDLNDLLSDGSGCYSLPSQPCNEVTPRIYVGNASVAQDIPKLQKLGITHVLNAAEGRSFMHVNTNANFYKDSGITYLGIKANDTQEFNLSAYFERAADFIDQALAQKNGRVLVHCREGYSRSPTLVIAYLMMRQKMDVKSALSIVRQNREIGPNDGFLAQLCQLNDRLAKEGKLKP
T1 sequence (P07550 whole entry): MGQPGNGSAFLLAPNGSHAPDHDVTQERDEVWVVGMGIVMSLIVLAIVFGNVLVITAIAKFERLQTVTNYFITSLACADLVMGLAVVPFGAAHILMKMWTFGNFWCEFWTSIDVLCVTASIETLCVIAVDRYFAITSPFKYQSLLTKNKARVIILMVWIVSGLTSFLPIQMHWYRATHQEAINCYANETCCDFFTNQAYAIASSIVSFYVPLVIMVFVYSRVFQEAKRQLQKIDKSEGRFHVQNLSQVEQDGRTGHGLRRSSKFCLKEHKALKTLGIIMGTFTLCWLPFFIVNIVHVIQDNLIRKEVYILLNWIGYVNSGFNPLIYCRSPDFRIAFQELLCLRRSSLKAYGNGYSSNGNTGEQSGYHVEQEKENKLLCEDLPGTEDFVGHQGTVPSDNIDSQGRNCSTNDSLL
Sequence of Beta-galactosidase (Q8VNN2 whole entry): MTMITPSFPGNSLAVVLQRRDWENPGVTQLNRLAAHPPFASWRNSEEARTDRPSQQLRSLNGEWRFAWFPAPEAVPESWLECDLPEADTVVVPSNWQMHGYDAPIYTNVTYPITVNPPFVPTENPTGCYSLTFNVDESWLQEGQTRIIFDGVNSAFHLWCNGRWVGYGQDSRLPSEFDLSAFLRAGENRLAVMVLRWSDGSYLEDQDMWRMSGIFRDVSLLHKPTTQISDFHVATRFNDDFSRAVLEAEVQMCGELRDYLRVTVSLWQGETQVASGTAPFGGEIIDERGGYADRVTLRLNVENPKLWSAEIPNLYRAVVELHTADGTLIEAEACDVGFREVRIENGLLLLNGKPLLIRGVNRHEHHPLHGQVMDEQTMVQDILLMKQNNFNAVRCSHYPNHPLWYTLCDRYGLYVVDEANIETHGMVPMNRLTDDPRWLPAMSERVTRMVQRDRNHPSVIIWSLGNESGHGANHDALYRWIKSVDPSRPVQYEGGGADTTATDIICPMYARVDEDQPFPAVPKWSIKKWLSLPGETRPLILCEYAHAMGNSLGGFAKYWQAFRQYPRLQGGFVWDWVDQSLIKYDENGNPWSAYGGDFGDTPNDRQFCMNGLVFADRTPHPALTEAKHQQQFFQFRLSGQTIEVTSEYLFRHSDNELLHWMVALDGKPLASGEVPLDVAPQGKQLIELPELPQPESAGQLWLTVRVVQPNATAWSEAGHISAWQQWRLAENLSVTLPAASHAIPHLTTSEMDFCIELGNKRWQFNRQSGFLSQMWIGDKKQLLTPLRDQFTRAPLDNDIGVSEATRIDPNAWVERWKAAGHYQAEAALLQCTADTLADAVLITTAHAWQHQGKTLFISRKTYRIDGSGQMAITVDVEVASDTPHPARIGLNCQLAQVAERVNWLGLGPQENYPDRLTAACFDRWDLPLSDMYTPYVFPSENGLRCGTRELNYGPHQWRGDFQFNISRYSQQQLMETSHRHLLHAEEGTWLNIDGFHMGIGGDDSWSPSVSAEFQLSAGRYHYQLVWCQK
Sequence of Dual specificity protein phosphatase 6 (Q64346 whole entry): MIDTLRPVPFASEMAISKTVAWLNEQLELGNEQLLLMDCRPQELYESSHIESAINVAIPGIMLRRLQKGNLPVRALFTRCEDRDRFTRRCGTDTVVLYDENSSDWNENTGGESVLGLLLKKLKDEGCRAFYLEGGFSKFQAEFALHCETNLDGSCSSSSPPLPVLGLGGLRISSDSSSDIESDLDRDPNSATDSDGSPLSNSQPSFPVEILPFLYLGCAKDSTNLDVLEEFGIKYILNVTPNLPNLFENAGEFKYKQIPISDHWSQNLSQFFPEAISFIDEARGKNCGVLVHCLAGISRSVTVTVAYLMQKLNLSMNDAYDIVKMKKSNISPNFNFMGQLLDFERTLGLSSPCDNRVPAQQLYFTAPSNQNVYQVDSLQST
Sequence of Tyrosine-protein phosphatase non-receptor type 12 (Q05209 whole entry): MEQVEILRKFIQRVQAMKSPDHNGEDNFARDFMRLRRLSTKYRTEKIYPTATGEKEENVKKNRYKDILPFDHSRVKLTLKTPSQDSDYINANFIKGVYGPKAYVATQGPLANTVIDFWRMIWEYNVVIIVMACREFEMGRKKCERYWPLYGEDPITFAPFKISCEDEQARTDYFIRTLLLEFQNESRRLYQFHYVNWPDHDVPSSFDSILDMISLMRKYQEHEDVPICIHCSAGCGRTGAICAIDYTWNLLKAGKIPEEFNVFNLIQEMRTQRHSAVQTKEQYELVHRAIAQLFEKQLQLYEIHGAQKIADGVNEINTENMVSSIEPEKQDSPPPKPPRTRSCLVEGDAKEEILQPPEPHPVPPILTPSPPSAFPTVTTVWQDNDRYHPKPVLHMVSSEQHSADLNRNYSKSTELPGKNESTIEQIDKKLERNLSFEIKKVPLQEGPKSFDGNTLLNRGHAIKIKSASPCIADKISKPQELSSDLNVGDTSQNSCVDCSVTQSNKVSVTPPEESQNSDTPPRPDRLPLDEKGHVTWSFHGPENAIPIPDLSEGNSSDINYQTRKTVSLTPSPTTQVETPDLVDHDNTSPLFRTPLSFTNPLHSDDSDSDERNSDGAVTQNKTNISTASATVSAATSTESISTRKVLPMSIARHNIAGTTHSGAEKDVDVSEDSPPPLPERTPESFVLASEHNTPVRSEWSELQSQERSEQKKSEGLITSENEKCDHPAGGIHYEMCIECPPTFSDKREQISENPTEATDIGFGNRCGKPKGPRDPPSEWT
Sequence of Voltage-gated inwardly rectifying potassium channel KCNH2 (Q12809 whole entry): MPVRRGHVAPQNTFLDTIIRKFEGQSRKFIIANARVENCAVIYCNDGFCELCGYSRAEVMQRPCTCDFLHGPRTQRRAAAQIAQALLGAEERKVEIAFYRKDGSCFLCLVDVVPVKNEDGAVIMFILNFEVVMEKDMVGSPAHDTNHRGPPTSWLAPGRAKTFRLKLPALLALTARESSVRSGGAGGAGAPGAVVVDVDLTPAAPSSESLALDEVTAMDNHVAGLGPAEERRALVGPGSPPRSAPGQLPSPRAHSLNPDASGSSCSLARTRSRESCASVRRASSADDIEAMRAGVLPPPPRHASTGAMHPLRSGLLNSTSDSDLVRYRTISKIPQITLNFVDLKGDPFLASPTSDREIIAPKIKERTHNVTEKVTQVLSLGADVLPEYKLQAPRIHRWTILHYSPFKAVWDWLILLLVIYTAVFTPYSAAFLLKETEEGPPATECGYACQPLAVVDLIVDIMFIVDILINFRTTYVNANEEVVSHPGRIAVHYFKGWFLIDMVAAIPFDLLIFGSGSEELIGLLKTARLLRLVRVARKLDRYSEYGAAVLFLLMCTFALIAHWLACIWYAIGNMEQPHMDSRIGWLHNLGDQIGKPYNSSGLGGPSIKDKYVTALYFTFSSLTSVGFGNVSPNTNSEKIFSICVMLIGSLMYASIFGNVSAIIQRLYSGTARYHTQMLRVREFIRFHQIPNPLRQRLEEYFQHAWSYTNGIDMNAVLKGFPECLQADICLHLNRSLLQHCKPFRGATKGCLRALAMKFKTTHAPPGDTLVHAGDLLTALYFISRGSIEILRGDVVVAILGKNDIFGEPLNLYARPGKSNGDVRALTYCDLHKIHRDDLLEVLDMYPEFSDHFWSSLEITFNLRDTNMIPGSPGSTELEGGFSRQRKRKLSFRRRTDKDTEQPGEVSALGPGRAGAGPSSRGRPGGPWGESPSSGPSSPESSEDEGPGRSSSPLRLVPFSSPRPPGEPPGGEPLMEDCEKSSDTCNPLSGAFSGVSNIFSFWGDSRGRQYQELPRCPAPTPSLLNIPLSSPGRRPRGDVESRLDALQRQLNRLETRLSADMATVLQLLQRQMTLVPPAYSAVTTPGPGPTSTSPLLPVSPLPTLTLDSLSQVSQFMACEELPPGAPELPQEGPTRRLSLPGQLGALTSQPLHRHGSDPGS
Sequence of Hexokinase-1 (P19367 whole entry, the tested form may be a part): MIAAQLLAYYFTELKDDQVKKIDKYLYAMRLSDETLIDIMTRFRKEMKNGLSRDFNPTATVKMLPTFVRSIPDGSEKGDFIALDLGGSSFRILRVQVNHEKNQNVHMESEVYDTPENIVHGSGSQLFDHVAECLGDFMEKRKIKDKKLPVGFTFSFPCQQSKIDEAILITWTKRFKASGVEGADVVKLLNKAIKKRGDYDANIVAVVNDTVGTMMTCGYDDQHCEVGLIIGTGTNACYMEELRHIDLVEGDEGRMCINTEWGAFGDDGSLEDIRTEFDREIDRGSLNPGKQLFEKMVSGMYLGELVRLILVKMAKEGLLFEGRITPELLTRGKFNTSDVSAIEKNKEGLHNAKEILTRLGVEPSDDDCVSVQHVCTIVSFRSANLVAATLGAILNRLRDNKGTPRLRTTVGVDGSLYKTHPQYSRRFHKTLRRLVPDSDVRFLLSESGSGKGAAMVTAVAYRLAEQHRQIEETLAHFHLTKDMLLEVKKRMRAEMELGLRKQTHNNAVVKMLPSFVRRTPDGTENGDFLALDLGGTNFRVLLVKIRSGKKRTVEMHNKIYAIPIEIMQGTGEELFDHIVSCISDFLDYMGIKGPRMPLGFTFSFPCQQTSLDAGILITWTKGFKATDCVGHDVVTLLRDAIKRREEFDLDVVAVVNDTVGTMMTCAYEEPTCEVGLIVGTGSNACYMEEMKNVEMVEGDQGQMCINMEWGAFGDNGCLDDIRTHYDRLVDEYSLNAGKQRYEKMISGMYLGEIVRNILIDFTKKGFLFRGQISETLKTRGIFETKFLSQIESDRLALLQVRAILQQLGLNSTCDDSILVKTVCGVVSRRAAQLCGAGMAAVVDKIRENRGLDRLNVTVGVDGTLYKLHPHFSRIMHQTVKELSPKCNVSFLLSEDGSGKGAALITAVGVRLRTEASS

Cc1ccc(Nc2nc(N)nc(CSC(=S)N3CCN(c4ccccc4)CC3)n2)cc1
active: AC50 [1] 31.4 µM | AC50 [2] 13.4 µM

C=CCn1c(CCNC(=O)c2cccs2)nnc1SCC(=O)c1ccc(Br)cc1
active: EC50 [3] 0.214 µM | EC50 [4] 0.00548 µM

O=c1c2ccccc2nc(/C=C/c2ccccc2Cl)n1Cc1ccccc1
inactive: IC50 (Hexokinase HKDC1) > 80 µM | IC50 (Hexokinase-1) > 80 µM

Cc1cc(N2CCCC2)nc2c(C)cccc12
active: IC50 [5] 9.96 µM | IC50 [6] 10.7 µM | IC50 [7] 9.8 µM

O=C1/C(=C/c2ccccc2)C[C@@]2(O)[C@H]3Cc4ccc(O)c5c4[C@@]2(CCN3CC2CC2)C1O5 (stereo partly specified)
active: AC50 [8] 8.88 µM | AC50 [10] 7.78 µM | IC50 (Jurkat) 4.22 µM | IC50 [11] 14 µM | AC50 [12] 4.64 µM
inactive: IC50 [9] > 80 µM | EC50 (Beta-galactosidase) > 40 µM

COc1cc([C@@H]2c3cc4c(cc3[C@H](O)C3COC(=O)[C@@H]32)OCO4)cc(OC)c1OC (stereo partly specified)
inconclusive: AC50 [13] 0.501 µM

CCOC(=O)C1=C(C)N=c2s/c(=C\c3cc(Cl)c(OCC(=O)O)c(Cl)c3)c(=O)n2C1c1cccc(OC)c1 (stereo unspecified)
active: IC50 [14] 49.7 µM | IC50 [15] 7.99 µM | IC50 [16] 44.6 µM | IC50 [17] 1.95 µM | IC50 [18] 1.22 µM | IC50 [19] 34.1 µM | IC50 [20] 13.4 µM | IC50 [21] 31.9 µM | IC50 [22] 2.76 µM
